Assay results published in PubChem BioAssay (NCI).
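In this assay, cells in 96-well plates receive the compound at five concentrations for 48 hours. Endpoints are linearly interpolated between the surrounding concentrations. TGI is the concentration that stops growth completely.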

Experiments:
Assay in all cases: NCI anticancer screen, dose series, 48 h
[1] = tested on: SF-539 CNS
[2] = tested on: COLO 205 colon
[3] = tested on: BT-549 breast
[4] = tested on: MDA-MB-435
[5] = tested on: U251 CNS
[6] = tested on: UACC-257 melanoma
[7] = tested on: A549 NSCLC
[8] = tested on: SNB-75 CNS
[9] = tested on: NCI-H522 lung
[10] = tested on: TK-10 renal
[11] = tested on: SK-MEL-5 melanoma
[12] = tested on: MDA-MB-231 breast
[13] = tested on: SK-MEL-28 melanoma

CC(=O)OC(C)c1cc2c(s1)C(=O)c1ccsc1C2=O (stereo not given)
TGI [1]: 0.182 µM
TGI [2]: 2.61 µM
TGI [3]: 0.347 µM
TGI [4]: 0.0301 µM
TGI [5]: 1.11 µM
TGI [6]: 0.156 µM
TGI [7]: 2.66 µM
TGI [8]: 0.301 µM
TGI [9]: 0.354 µM
TGI [10]: 2.49 µM
TGI [11]: 0.0743 µM

CCOc1nc2sc3c(c2c(=O)n1CCSSCCn1c(OCC)nc2sc4c(c2c1=O)CCCC4)CCCC3
TGI [1]: > 100 µM
TGI [12]: > 100 µM
TGI [2]: > 100 µM
TGI [3]: > 100 µM
TGI [4]: > 100 µM
TGI [5]: > 100 µM
TGI [13]: > 100 µM
TGI [6]: > 100 µM
TGI [7]: > 100 µM
TGI [8]: > 100 µM
TGI [10]: > 100 µM
TGI [11]: > 100 µM

CCOC(=O)c1ccn2c(c1)c(C#N)c1nc3ccccc3nc12
TGI [1]: > 100 µM
TGI [2]: > 100 µM
TGI [5]: > 100 µM
TGI [13]: > 100 µM
TGI [6]: > 100 µM
TGI [7]: > 100 µM
TGI [8]: > 100 µM
TGI [9]: > 100 µM
TGI [10]: > 100 µM
TGI [11]: > 100 µM

COC(=O)C1=COC2OC3CC1C2C(C)O3 (stereo not given)
TGI [1]: > 100 µM
TGI [12]: > 100 µM
TGI [2]: > 100 µM
TGI [3]: > 100 µM
TGI [4]: > 100 µM
TGI [5]: > 100 µM
TGI [13]: > 100 µM
TGI [6]: > 100 µM
TGI [7]: > 100 µM
TGI [9]: > 100 µM
TGI [10]: > 100 µM
TGI [11]: > 100 µM

CC(C)=CCOc1ccc(-c2coc3cc4c(c(O)c3c2=O)C=CC(C)(C)O4)cc1
TGI [2]: > 100 µM
TGI [5]: > 100 µM
TGI [13]: > 100 µM
TGI [6]: > 100 µM
TGI [7]: > 100 µM
TGI [9]: 38.9 µM
TGI [10]: > 100 µM
TGI [11]: 0.932 µM

Oc1ccc(/C=N/c2nccs2)c(O)c1
TGI [1]: > 100 µM
TGI [12]: > 100 µM
TGI [2]: 92.1 µM
TGI [3]: > 100 µM
TGI [6]: > 100 µM
TGI [7]: > 100 µM
TGI [8]: > 100 µM
TGI [9]: > 100 µM
TGI [10]: > 100 µM
TGI [11]: > 100 µM

Cc1ccc(O)c(C2=NNC(c3cccc(Cl)c3)C2)c1 (stereo not given)
TGI [1]: > 100 µM
TGI [12]: > 100 µM
TGI [2]: > 100 µM
TGI [3]: > 100 µM
TGI [4]: 44.5 µM
TGI [5]: > 100 µM
TGI [6]: > 100 µM
TGI [7]: > 100 µM
TGI [9]: 53.6 µM
TGI [10]: > 100 µM
TGI [11]: > 100 µM

O=c1[nH]c(=O)n(C2CC(O)C(COP(=O)(OCC(Cl)(Cl)Cl)OCC(Cl)(Cl)Cl)O2)cc1F (stereo not given)
TGI [12]: > 100 µM
TGI [2]: > 100 µM
TGI [4]: > 100 µM
TGI [5]: > 100 µM
TGI [13]: > 100 µM
TGI [6]: > 100 µM
TGI [7]: > 100 µM
TGI [8]: > 100 µM
TGI [9]: > 34.8 µM
TGI [10]: > 100 µM
TGI [11]: > 100 µM

CC(C)CC1NC(=O)CCC(NC(=O)C(Cc2ccc(O)cc2)NC(=O)OCc2ccccc2)C(=O)NC(Cc2ccccc2)C(=O)NC(Cc2ccccc2)NC1=O (stereo not given)
TGI [1]: > 100 µM
TGI [12]: > 100 µM
TGI [2]: > 100 µM
TGI [3]: > 100 µM
TGI [4]: > 100 µM
TGI [5]: > 100 µM
TGI [13]: > 100 µM
TGI [6]: > 100 µM
TGI [7]: > 100 µM
TGI [8]: > 100 µM
TGI [10]: > 100 µM
TGI [11]: > 100 µM

COC(=O)C(=O)C(C(C)=O)C(=O)C(=O)Nc1ccc(C)cc1C (stereo not given)
TGI [1]: > 100 µM
TGI [2]: > 100 µM
TGI [5]: > 100 µM
TGI [13]: > 100 µM
TGI [6]: > 100 µM
TGI [7]: > 100 µM
TGI [8]: > 100 µM
TGI [9]: > 100 µM
TGI [10]: > 100 µM
TGI [11]: > 100 µM

Cc1ccc2c(c1)CC1(C2)Cc2ccc(C)cc2C1=O (stereo not given)
TGI [1]: 87.3 µM
TGI [12]: 62.5 µM
TGI [2]: 44.3 µM
TGI [4]: > 100 µM
TGI [5]: > 100 µM
TGI [13]: > 100 µM
TGI [6]: 48.1 µM
TGI [7]: > 100 µM
TGI [8]: 84.3 µM
TGI [9]: 61.3 µM
TGI [10]: > 100 µM
TGI [11]: 26 µM

COc1cc(OC)nc(-n2c(N)c(C(=O)O)c3ccc([N+](=O)[O-])cc3c2=O)n1
TGI [12]: > 100 µM
TGI [2]: > 100 µM
TGI [3]: > 100 µM
TGI [4]: > 100 µM
TGI [5]: > 100 µM
TGI [13]: > 100 µM
TGI [7]: > 100 µM
TGI [8]: > 100 µM
TGI [9]: > 100 µM
TGI [11]: > 100 µM

COC(=O)CNC(=O)CSc1nnc(COc2ccc(Cl)cc2)n1-c1ccccc1
TGI [1]: > 100 µM
TGI [12]: 49.1 µM
TGI [2]: > 100 µM
TGI [4]: 48.4 µM
TGI [5]: > 100 µM
TGI [13]: 81.3 µM
TGI [6]: 75.8 µM
TGI [7]: > 100 µM
TGI [8]: 35.5 µM
TGI [9]: 34.7 µM
TGI [10]: 46.3 µM

O=Cc1ccc(-c2ccc(S(=O)(=O)O)cc2)o1
TGI [1]: > 100 µM
TGI [12]: > 100 µM
TGI [2]: > 100 µM
TGI [3]: > 100 µM
TGI [4]: > 100 µM
TGI [5]: > 100 µM
TGI [13]: > 100 µM
TGI [6]: > 100 µM
TGI [7]: > 100 µM
TGI [9]: > 100 µM
TGI [10]: > 100 µM
TGI [11]: > 100 µM

CCCCCC(/C=C/c1ncccc1OCCCCCC(=O)O)=N\NC1=NCCN1
TGI [1]: > 100 µM
TGI [2]: > 100 µM
TGI [13]: > 100 µM
TGI [7]: > 100 µM
TGI [8]: > 100 µM
TGI [9]: > 100 µM
TGI [10]: > 100 µM

CCN1C/C(=C\c2ccc(Cl)cc2)c2[nH]c(=O)c(C#N)c(-c3ccc(Cl)cc3)c2C1
TGI [1]: > 100 µM
TGI [12]: > 100 µM
TGI [2]: > 100 µM
TGI [3]: > 100 µM
TGI [4]: > 100 µM
TGI [5]: > 100 µM
TGI [13]: > 100 µM
TGI [6]: > 100 µM
TGI [7]: > 100 µM
TGI [10]: > 100 µM
TGI [11]: > 100 µM

CC12CCC(=O)[C@@]1(C)CCCC2O (stereo not given in full)
TGI [1]: > 100 µM
TGI [12]: > 100 µM
TGI [2]: > 100 µM
TGI [3]: > 100 µM
TGI [5]: > 100 µM
TGI [13]: > 100 µM
TGI [6]: > 100 µM
TGI [7]: > 100 µM
TGI [8]: > 100 µM
TGI [9]: > 100 µM
TGI [10]: > 100 µM
TGI [11]: > 100 µM

CC(=O)c1cccc(Nc2nc3ccccc3c3[nH]c4ccccc4c23)c1
TGI [1]: 18 µM
TGI [12]: 51.6 µM
TGI [2]: 5.81 µM
TGI [3]: > 100 µM
TGI [4]: 71.1 µM
TGI [5]: 16.4 µM
TGI [6]: > 100 µM
TGI [7]: 15.3 µM
TGI [9]: 8.11 µM
TGI [10]: 37 µM

COc1cc2c(cc1O)C(=O)O[C@@H]1CC=C3CCN(C)[C@H]3[C@H]21
TGI [12]: > 25 µM
TGI [3]: > 25 µM
TGI [4]: > 25 µM
TGI [5]: > 25 µM
TGI [13]: > 25 µM
TGI [6]: > 25 µM
TGI [7]: > 25 µM
TGI [8]: > 25 µM
TGI [9]: > 25 µM
TGI [10]: > 25 µM
TGI [11]: > 25 µM

CCOC(=O)c1nc2cc(F)cc(F)c2[nH]c1=O
TGI [1]: > 100 µM
TGI [12]: > 100 µM
TGI [2]: > 100 µM
TGI [3]: > 100 µM
TGI [4]: > 100 µM
TGI [5]: > 100 µM
TGI [13]: > 100 µM
TGI [6]: > 100 µM
TGI [7]: > 100 µM
TGI [8]: > 100 µM
TGI [10]: > 100 µM
TGI [11]: > 100 µM
